Measurements as given in patent US7947664B2, “Angiotensin II receptor antagonists” (Merck Sharp & Dohme Corp., priority 2008, dated 2011).
pEC50: −log10 of the molar value.

System: isolated rabbit thoracic aorta preparations
Assay: Vessel relaxation in isolated rabbit thoracic aorta preparations
Details: Oryctolagus cuniculus; in vitro, rabbit aortic rings precontracted with noradrenaline (1 μM), functional endothelium
Procedure: The ability of the compounds to induce vasorelaxation was tested in vitro in isolated rabbit thoracic aorta preparations (Wanstall J. C. et al., Br. J. Pharmacol., 134:463-472, 2001). Male New Zealand rabbits were anaesthetized with thiopental-Na (50 mg/kg, iv), sacrificed by exsanguinations and then the thorax was opened and the aorta dissected. Aortic ring preparations (4 mm in length) were set up in physiological salt solution (PSS) at 37° C. in small organ chambers (5 ml). The composition of PSS was (mM): NaCl 130, NaHCO3 14.9, KH2PO4 1.2, MgSO4 1.2, HEPES 10, CaCl2, ascorbic acid […] and glucose 1.1 (95% O2/5% CO2; pH 7.4). Each ring was mounted under 2 g passive tension. Isometric tension was recorded with a Grass transducer (Grass FT03) attached to a BIOPAC MP150 System. Preparations were allowed to equilibrate for 1 h, and then contracted submaximally with noradrenaline (NA, 1 μM) and, when the contraction was stable, acetylcholine (ACh, 10 μM) was added. A relaxant response to ACh indicated the presence of a functional endothelium. […] When a stable precontraction was reached, a cumulative concentration-response curve to either of the vasorelaxant agents was obtained in the presence of a functional endothelium. Each arterial ring was exposed to only one combination of inhibitor and vasorelaxant. […]
Examples 32 and 48 were evaluated for vessel relaxation.

Compound | pEC50
CCOc1nc2cccc(C(=O)OC(C)OC(=O)OCCC(C)CCO/N=[N+](\[O-])N(C)C(C)(C)C)c2n1Cc1ccc(-c2ccccc2-c2nnn[nH]2)cc1 (centres unmarked) [Example 32, O^2-(5-{[(1-{[(2-ethoxy-1-{[2′-(1H-tetrazol-5-yl)biphenyl-4-yl]methyl}-1H-benzimidazol-7-yl)carbonyl]oxy}ethoxy)carbonyl]oxy}-3-methylpentyl) 1-(N-tert-butylmethylamino)diazen-1-ium-1,2-diolate] | 4.34
CCOc1nc2cccc(C(=O)OC(C)OC(=O)O[C@H](C)CCCCO/N=[N+](\[O-])N(C)C(C)(C)C)c2n1Cc1ccc(-c2ccccc2-c2nnn[nH]2)cc1 (stereo partly drawn) [Example 48, O^2-[(5R)-5-{[(1-{[(2-ethoxy-1-{[2′-(1H-tetrazol-5-yl)biphenyl-4-yl]methyl}-1H-benzimidazol-7-yl)carbonyl]oxy}ethoxy)carbonyl]oxy}hexyl] 1-(N-tert-butylmethylamino)diazen-1-ium-1,2-diolate] | < 4.00
